Experiments:
Huntingtin protein = experiment: In vitro evaluation in SH-SY5Y cells: Huntingtin protein by Western blot; format: cell-based, human; settings: 48 hours
Experimental: (§1) Cultured human neuroblastoma (SH-SY5Y cell line) cells were treated at doses ranging from 5 nM-125 nM for 24 hours (for transcript evaluation) or 48 hours (for protein evaluation). RNA was quantified by Nanodrop 2000 (Thermo Scientific). cDNAs were synthesized from 140-400 ng RNA using Maxima First strand cDNA synthesis kit using a mix of oligo dT and random hexamers (Thermo Scientific) in 20 uL reaction at 25° C. for 10 min, 50° C. for 15 min then 85° C. for 5 min. Quantitative PCR was performed using Taqman Fast Advanced master mix (Thermo Scientific) in 20 uL with 4 uL of cDNA reaction and primers specific for each genes. The PCR steps were as follows: 95° C. for 20 sec then 40 cycles of 95° C. for 1 sec, 55° C. for 20 sec. […] Relative quantification of gene expression was performed using 2-AACT method. Fold changes in the mRNA expression level was calculated following normalization to […] glucuronidase beta (Gusb) as an endogenous reference (FIGS. 2a and 2b).
For protein analysis, cells were lysed in RIPA buffer with protease and phosphatase inhibitor (Thermo Scientific). […] Total protein concentration was quantified using the BCA protein Assay (Thermo Scientific). […] Protein bands were quantified by Image J.

[1] = system: endogenous mouse HTT transcript or protein; experiment: BacHD mice: effect on endogenous mouse HTT; format: in vivo
Experimental: as §1, with “Total RNA from cerebrum and cerebellum was extracted using RNeasy Plus kit (Qiagen) after homogenized in Precellys” for “Cultured human neuroblastoma (SH-SY5Y cell line) cells were treated”, “6000 rpm for 40 sec. RNA” for “doses ranging”, “blood was extracted using PAXgene blood RNA kit (Qiagen) according to manufacturer protocol. The” for “5 nM-125 nM for 24 hours (for transcript evaluation) or 48 hours (for protein evaluation).”, “2^−ΔΔCT” for “2-AACT”, “reference.” for “reference (FIGS. 2a and 2b).”
Snap-frozen mouse tissue samples were homogenized in RIPA buffer with protease and phosphatase inhibitor (Thermo Scientific) by Precellys at 6000 rpm for 40 sec. […] Total protein concentration was quantified using the BCA protein Assay (Thermo Scientific). […] Protein bands were quantified by Image J.

Compound: CC1(C)CC(Oc2ccc(-c3ccc(-c4cn[nH]c4)cc3O)nn2)CC(C)(C)N1 [Compound 18, 5-(1H-pyrazol-4-yl)-2-(6-((2,2,6,6-tetramethylpiperidin-4-yl)oxy)pyridazin-3-yl)phenol]
- reduction of normal Huntingtin protein (Huntingtin protein; 5 nM-125 nM, Western blot): 50-70%
- EC50 (Huntingtin protein; read-out: EC50 for HTT protein lowering): 0.01 to 0.025 µM
- effect on endogenous mouse HTT transcript or protein [1]: no lowering effect
